# Measurements taken from PubChem BioAssay AID1963825 (Molecular Pharmacology Branch, DTP, NCI, 2024).
# Experiment: Anticancer human tumor 997537-175-T-J1-PDC patient-derived colon adenocarcinoma cell line growth inhibition [POLQ]
# Conditions: 997537-175-T-J1-PDC complex spheroid viability, combination with POLQ inhibitors; for IC50: curve of first compound; for viability, T/C: stronger effect = lower value
# How it was run: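 PDC + HUVEC + MSC complex spheroids; POLQ inhibitors ± partner drugs; top conc. at/near clinical Cmax, else 10 microM (SN-38 1 microM), half-log dilutions; 37 degrees C, 5% CO2.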
# 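Also: luminescence signal used as a surrogate for viable cells; spheroids exposed to drugs for seven days before readout.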
smiles,measurement,setting,value
C#Cc1c(F)ccc2cc(O)cc(-c3ncc4c(N5CC6CCC(C5)N6)nc(OCC56CCCN5CC(F)C6)nc4c3F)c12 (configuration not stated) + Nc1ccc(C#CCN(C(=O)Cc2ncc(C(F)(F)F)cc2C(F)(F)F)c2ccc(F)cc2)nn1,IC50,second compound 0.0316 µM,> 10 µM
same,IC50,second compound 0.1 µM,> 10 µM
same,IC50,second compound 0.316 µM,> 10 µM
same,IC50,second compound 1 µM,> 10 µM
same,IC50,second compound 3.16 µM,> 10 µM
same,IC50,second compound 10 µM,> 10 µM
same,"viability, T/C","second compound 0.0316 µM, first compound 0.0316 µM",92.4%
same,"viability, T/C","second compound 0.0316 µM, first compound 0.1 µM",93%
same,"viability, T/C","second compound 0.0316 µM, first compound 0.316 µM",108%
same,"viability, T/C","second compound 0.0316 µM, first compound 1 µM",106%
same,"viability, T/C","second compound 0.0316 µM, first compound 3.16 µM",102%
same,"viability, T/C","second compound 0.0316 µM, first compound 10 µM",96.5%
same,"viability, T/C","second compound 0.1 µM, first compound 0.0316 µM",101%
same,"viability, T/C","second compound 0.1 µM, first compound 0.1 µM",110%
same,"viability, T/C","second compound 0.1 µM, first compound 0.316 µM",101%
same,"viability, T/C","second compound 0.1 µM, first compound 1 µM",86.8%
same,"viability, T/C","second compound 0.1 µM, first compound 3.16 µM",94.1%
same,"viability, T/C","second compound 0.1 µM, first compound 10 µM",96.7%
same,"viability, T/C","second compound 0.316 µM, first compound 0.0316 µM",105%
same,"viability, T/C","second compound 0.316 µM, first compound 0.1 µM",105%
same,"viability, T/C","second compound 0.316 µM, first compound 0.316 µM",101%
same,"viability, T/C","second compound 0.316 µM, first compound 1 µM",96.9%
same,"viability, T/C","second compound 0.316 µM, first compound 3.16 µM",103%
same,"viability, T/C","second compound 0.316 µM, first compound 10 µM",110%
same,"viability, T/C","second compound 1 µM, first compound 0.0316 µM",106%
same,"viability, T/C","second compound 1 µM, first compound 0.1 µM",103%
same,"viability, T/C","second compound 1 µM, first compound 0.316 µM",95.8%
same,"viability, T/C","second compound 1 µM, first compound 1 µM",82.8%
same,"viability, T/C","second compound 1 µM, first compound 3.16 µM",106%
same,"viability, T/C","second compound 1 µM, first compound 10 µM",98.1%
same,"viability, T/C","second compound 3.16 µM, first compound 0.0316 µM",94.9%
same,"viability, T/C","second compound 3.16 µM, first compound 0.1 µM",103%
same,"viability, T/C","second compound 3.16 µM, first compound 0.316 µM",99.5%
same,"viability, T/C","second compound 3.16 µM, first compound 1 µM",92.7%
same,"viability, T/C","second compound 3.16 µM, first compound 3.16 µM",104%
same,"viability, T/C","second compound 3.16 µM, first compound 10 µM",107%
same,"viability, T/C","second compound 10 µM, first compound 0.0316 µM",104%
same,"viability, T/C","second compound 10 µM, first compound 0.1 µM",102%
same,"viability, T/C","second compound 10 µM, first compound 0.316 µM",100%
same,"viability, T/C","second compound 10 µM, first compound 1 µM",112%
same,"viability, T/C","second compound 10 µM, first compound 3.16 µM",98.8%
same,"viability, T/C","second compound 10 µM, first compound 10 µM",110%
